Experimental data published in patent US9023987B2, “Cell-permeable peptide” (Seoul National University R&DB Foundation, priority 2010, dated 2015).

Columns and labels:
Format in all cases: cell-based
[1] = test system: human mesenchymal stem cells (hMSC); assay: Cell permeability by flow cytometry; design: dose or concentration left out as unconfirmed; settings: FITC-labeled, relative to bone differentiation inducing sequence, FIG. 3B
Description: The domains synthesized in Example 1 and Comparative Examples 1 and 2 were labeled with a fluorescent material in order to measure cell permeability. 10 equivalents of fluorescein isothiocyanate (FITC) was bound to N-terminals of the synthesized domains by using triethylamine (1 ml per 1 g of resin). The synthesis of the peptide was confirmed by measuring the molecular weight thereof through MALDI-TOF.
In order to quantitatively confirm the cell permeability and cell permeation degree of fluorescence labeled magnetic nanoparticle conjugates, after 1×10^5 human mesenchymal stem cells (hMSC) were plated in each well of 6-well plate, the cells were cultured in a general medium for 20 hours (overnight incubation). […] fluorescence labeled cell permeable peptide-bone differentiation inducing sequence conjugate and […] fluorescence labeled bone differentiation inducing sequence that were obtained by binding FITC (SIGMA, USA) N-terminals of the cell permeable peptide-bone differentiation inducing sequence conjugate synthesized by the method in Example 1 and the domain in Comparative Example 2 to synthesize the fluorescence label conjugate and fluorescence label domain, followed by isolation and purification, were injected into each well and washed with the phosphate buffer solution (PBS) two times after 20, 40, 60, and 80 minutes of injection. […]

[2] = test system: human mesenchymal stem cells (hMSC); assay: Cell differentiation ability by Alizarin red S staining; settings: 10 mM, hard tissue-forming medium, 14 days, compared with PBS; FIG. 4A a-c
Description: In order to confirm cell differentiation ability of the cell permeable peptide-bone differentiation inducing sequence conjugate by the amount of phosphorylated calcium, human mesenchymal stem cells (hMSC) were seeded in a 24-well plate at 1×10^3/well, and then treated with the cell permeable peptide-bone differentiation inducing sequence conjugate synthesized from Example 1 and the bone differentiation inducing sequence of Comparative Example 2 of […] for each, and then incubated in a hard tissue-forming medium for 14 days. The hard tissue-forming medium contained an MSCBM medium containing 15% FBS (fetal bovine serum), […] of L-ascorbic acid, 10^−7 M dexamethasone, 1% antibiotic-antimycotic solution, and 10 mM beta-glycerol phosphate. After completion of the incubation, the medium was removed, and then the cells were washed with phosphate buffer solution (PBS) twice. The cells were fixed using 90% ethanol at 4° C. for 15 minutes, followed by washing with distilled water twice, and then stained with 2% Alizarin red S Solution (pH 4.2; Alizarin red S powder, Junsei, JAPAN).

[3] = test system: human mesenchymal stem cells (hMSC); assay: Cell differentiation ability by calcein staining; design: dose or concentration left out as unconfirmed; settings: hard tissue-forming medium with calcein, 14 days, compared with PBS; FIG. 4A g-i
Description: In order to confirm cell differentiation ability of the cell permeable peptide-bone differentiation inducing sequence conjugate, human mesenchymal stem cells (hMSC) were seeded in each well of a 4-well chamber slide at 5×10^3/well, and then incubated in a general medium for 20 hours (overnight) for cell stabilization. The cells were treated with the cell permeable peptide-bone differentiation inducing sequence conjugate synthesized from Example 1 and the bone differentiation inducing sequence of Comparative Example 2 of […] for each, and then incubated in a hard tissue forming medium containing calcein (calcium staining, green) for 14 days. The composition of the hard tissue-forming medium consisted of an MSCBM medium containing 15% FBS (fetal bovine serum), […] of L-ascorbic acid, 10^−7 M dexamethasone, 1% antibiotic-antimycotic solution, and 10 mM beta-glycerol phosphate. After completion of the incubation, the medium was removed, and then the cells were washed with phosphate buffer solution (PBS) twice. The cells washed with the phosphate buffer solution were fixed with 10% NBF (neutral buffered formalin), and then the nucleus was stained (Hoechst 33342, blue). […]

[4] = test system: human mesenchymal stem cells (hMSC); assay: Cytotoxicity / cell proliferation by quantitative BrdU assay; design: dose or concentration left out as unconfirmed; settings: 24, 48, and 72 hours, FIG. 6
Description: In order to confirm whether or not cell proliferation is affected by potential toxicity when the cell permeable peptide-bone differentiation inducing sequence conjugate and control domains are cultured with hMSC, a degree of cell proliferation was analysis by ELISA using BrdU. Since BrdU was introduced in chromosome instead of deoxy thymidine triphosphate (dTTP) at the time of DNA replication during a proliferation process of hMSC, a degree of introduction of BrdU may reflect a degree of proliferation of hMSC.
First, After 1×10^3 human Mesenchymal Stem cells (hMSC) were plated into each well of 96-well plate, the degree of introduction of BrdU, that is, the degree of proliferation of hMSC was measured using a cell proliferation ELISA kit (BrdU (colorimetry); Boehringermanheim, Germany). Simply describing this method, the cells were treated with the cell permeable peptide-bone differentiation inducing sequence conjugate synthesized by the method in Example 1 and the domains of Example 2 at a concentration of […] and cultured in medium for forming hard tissue for 24, 48, and 72 hours. […] of BrdU (5-bromo-2′-deoxyuridine) was added to each of the groups before 24 hours of each culture time and further cultured for 24 hours. […] The reaction was terminated by 1N H2SO4, and then absorbance was measured using the ELISA reader (Bio-Tek, USA) at 450 nm.

Substance: NH2-GAPPPADSAP-SSRKKNPNCRRH-C-COONH2 (H-GAPPPADSAPSSRKKNPNCRRHC-NH2; cysteine pairing not given here) [Example 1]
- relative increase of fluorescence intensity (flow cytometry) [1]: ≥ 10 times
- differentiation into osteoblast, Alizarin red S staining of phosphorylated calcium [2]: relatively strong staining degree of phosphorylated calcium
- calcein staining degree of phosphorylated calcium [3]: relatively strong staining degree of phosphorylated calcium
- effect on cell proliferation (BrdU, DNA synthesis ability compared with PBS) [4]: did not affect the cell proliferation
